Tests used:
[1] = molecular target: Glutamate receptor ionotropic, AMPA (Rattus norvegicus, UniProt P19490+P19491+P19492+P19493); test: (§1) In vitro inhibition of binding of [3H]AMPA towards AMPA receptor in rat
[2] = molecular target: Glutamate NMDA receptor; test: In vitro inhibition of binding of [3H]MDL-105519 towards glycine binding site of NMDA receptor in rat
[3] = system: Mus musculus; test: In vivo anticonvulsant effects in the electroshock induced convulsion in mice after 50 mg/kg intraperitoneal administration and 30 min pretreatment time; type: functional
[4] = system: Mus musculus; test: In vivo anticonvulsant effects in the electroshock induced convulsion in mice after intraperitoneal administration and 15 min pretreatment time; type: functional; conditions: ip
[5] = Partition coefficient (logP); type: physicochemical; conditions: octanol/water
[6] = system: Mus musculus; test: In vivo anticonvulsant effects in the electroshock induced convulsion in mice after intraperitoneal administration and 2 hr pretreatment time; type: functional; conditions: ip
[7] = system: Mus musculus; test: In vivo anticonvulsant effects on electroshock induced convulsion in mice after i.p. administration and 30 min pretreatment.; type: functional; conditions: ip
[8] = molecular target: Glutamate receptor ionotropic, NMDA 1 (Rattus norvegicus) (UniProt P35439); test: In vitro inhibition of binding of [3H]MDL-105519 towards glycine binding site of NMDA receptor in rat at a concentration of 1 uM
[9] = molecular target: Glutamate receptor ionotropic, NMDA 1 (Rattus norvegicus) (UniProt P35439); test: In vitro inhibition of binding of [3H]MDL-105,519 towards glycine binding site of NMDA receptor in rat; conditions: concentration not given here
[10] = molecular target: Glutamate receptor ionotropic, AMPA (Rattus norvegicus) (UniProt P19491+P19492+P19493+P19490); test: as §1; conditions: concentration not given here
[11] = molecular target: Glutamate receptor ionotropic, AMPA (Rattus norvegicus, UniProt P19491+P19492+P19493+P19490); test: In vitro inhibition of binding of [3H]-AMPA towards AMPA receptor in rat; No affinity
Sequence of Glutamate receptor ionotropic, AMPA (Rattus norvegicus, UniProt P19491+P19492+P19493+P19490) (P19491 whole entry): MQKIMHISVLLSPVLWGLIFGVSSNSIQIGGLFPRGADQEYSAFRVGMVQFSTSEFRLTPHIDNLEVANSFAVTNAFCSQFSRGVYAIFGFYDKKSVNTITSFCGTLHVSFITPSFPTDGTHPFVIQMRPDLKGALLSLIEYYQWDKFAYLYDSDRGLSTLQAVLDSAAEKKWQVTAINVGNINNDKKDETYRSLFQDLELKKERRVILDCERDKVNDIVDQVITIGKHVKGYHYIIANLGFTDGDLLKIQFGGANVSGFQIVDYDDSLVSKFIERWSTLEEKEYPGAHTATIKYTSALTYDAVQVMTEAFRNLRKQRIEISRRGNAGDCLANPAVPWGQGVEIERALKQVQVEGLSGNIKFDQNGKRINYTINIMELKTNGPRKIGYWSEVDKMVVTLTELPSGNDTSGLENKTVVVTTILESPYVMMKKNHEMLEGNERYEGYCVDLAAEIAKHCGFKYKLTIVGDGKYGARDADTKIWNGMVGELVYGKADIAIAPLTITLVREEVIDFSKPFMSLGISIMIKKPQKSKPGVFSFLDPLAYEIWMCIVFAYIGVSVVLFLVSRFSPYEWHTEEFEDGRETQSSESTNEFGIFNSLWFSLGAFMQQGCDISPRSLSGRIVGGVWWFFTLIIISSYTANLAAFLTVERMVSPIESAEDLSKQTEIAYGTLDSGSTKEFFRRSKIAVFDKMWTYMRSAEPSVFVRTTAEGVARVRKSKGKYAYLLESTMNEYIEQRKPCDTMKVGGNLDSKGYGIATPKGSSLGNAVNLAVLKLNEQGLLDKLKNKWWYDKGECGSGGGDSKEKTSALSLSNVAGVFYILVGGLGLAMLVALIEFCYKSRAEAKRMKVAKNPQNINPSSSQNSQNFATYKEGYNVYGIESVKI
Sequence of Glutamate receptor ionotropic, AMPA (Rattus norvegicus, UniProt P19491+P19492+P19493+P19490) (P19492 whole entry): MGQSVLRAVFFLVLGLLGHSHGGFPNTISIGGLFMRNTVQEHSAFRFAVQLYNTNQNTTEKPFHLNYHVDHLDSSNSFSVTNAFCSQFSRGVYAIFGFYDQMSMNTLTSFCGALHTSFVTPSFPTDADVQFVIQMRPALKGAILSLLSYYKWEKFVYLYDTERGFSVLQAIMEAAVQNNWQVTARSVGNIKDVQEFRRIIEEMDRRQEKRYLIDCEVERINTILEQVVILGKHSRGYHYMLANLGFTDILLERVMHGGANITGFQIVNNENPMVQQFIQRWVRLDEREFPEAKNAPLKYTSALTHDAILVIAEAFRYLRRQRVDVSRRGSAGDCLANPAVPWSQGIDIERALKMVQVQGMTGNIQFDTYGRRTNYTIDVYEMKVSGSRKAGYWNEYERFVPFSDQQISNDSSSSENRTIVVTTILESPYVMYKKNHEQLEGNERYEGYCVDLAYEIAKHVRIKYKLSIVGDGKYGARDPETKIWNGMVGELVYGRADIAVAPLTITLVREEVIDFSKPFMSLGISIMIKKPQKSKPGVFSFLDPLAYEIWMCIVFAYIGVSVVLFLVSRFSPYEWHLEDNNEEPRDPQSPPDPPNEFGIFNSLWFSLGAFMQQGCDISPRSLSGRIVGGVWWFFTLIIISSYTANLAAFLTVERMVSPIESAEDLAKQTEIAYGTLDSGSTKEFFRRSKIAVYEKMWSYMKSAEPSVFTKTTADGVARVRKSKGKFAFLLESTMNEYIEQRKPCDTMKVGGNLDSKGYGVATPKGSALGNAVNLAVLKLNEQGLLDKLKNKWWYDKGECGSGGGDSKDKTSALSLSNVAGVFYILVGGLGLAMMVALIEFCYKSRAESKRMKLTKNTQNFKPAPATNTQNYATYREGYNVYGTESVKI
Sequence of Glutamate receptor ionotropic, AMPA (Rattus norvegicus, UniProt P19491+P19492+P19493+P19490) (P19493 whole entry): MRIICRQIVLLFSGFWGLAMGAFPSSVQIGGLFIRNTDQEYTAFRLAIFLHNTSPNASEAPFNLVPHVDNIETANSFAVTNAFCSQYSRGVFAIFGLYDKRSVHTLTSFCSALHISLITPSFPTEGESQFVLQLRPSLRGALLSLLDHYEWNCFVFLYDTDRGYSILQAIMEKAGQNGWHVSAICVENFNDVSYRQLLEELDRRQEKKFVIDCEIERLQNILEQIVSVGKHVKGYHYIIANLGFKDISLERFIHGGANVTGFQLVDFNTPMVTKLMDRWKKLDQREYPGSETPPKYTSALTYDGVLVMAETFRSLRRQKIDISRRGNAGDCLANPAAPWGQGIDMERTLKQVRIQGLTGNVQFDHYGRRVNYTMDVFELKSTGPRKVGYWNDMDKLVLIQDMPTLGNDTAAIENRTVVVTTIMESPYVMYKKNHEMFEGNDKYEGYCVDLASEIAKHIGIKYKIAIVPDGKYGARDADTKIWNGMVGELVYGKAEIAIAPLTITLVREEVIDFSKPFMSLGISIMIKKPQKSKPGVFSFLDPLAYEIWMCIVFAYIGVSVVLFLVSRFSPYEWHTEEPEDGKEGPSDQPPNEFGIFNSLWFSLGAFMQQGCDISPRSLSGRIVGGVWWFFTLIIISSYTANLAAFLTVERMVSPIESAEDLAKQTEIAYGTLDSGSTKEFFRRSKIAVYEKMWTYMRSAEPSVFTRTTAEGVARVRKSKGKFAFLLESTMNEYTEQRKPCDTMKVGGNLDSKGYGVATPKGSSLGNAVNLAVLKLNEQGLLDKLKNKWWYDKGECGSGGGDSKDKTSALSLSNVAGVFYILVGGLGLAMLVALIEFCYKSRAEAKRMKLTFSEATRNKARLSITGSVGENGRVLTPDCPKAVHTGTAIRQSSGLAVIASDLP
Sequence of Glutamate receptor ionotropic, AMPA (Rattus norvegicus, UniProt P19491+P19492+P19493+P19490) (P19490 whole entry): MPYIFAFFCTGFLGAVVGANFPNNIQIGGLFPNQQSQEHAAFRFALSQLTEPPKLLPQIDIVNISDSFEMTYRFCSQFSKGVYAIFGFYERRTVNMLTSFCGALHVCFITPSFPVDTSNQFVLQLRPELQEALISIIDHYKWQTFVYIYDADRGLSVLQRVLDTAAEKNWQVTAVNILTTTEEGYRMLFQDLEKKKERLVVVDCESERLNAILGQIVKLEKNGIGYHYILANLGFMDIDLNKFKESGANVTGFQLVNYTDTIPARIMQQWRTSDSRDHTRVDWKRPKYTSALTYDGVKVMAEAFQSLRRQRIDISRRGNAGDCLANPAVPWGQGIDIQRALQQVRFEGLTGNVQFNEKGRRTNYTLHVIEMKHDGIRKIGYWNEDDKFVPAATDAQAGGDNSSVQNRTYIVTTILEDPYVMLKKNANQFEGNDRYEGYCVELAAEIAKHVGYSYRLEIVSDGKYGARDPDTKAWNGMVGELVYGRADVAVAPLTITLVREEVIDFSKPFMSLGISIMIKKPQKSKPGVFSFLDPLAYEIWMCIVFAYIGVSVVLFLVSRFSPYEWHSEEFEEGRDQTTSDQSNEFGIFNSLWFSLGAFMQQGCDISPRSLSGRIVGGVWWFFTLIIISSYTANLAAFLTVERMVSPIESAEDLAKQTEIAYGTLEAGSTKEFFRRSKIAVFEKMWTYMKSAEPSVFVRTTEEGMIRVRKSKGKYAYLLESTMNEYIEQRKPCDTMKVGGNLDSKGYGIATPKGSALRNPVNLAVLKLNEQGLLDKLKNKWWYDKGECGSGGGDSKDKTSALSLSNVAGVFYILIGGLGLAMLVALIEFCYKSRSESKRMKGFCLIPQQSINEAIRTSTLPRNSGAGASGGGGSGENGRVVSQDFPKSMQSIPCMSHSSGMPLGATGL

[12] = system: Mus musculus; test: In vivo anticonvulsant effects in the electroshock induced convulsion in mice after 50 mg/kg intraperitoneal administration and 1 hr pretreatment time; type: functional
[13] = system: Mus musculus; test: In vivo anticonvulsant effects in the electroshock induced convulsion in mice after intraperitoneal administration and 1 hr pretreatment time; type: functional; conditions: ip

IC50 [1] [nM] | IC50 [2] [nM] | SMILES | ED50 [7] [mg/kg] | also measured
4300 | 2200 | C[C@H](NCc1cc(Br)cc2nc(O)c(O)nc12)C(=O)O |  | 
2400 | 100 | O=P(O)(O)CNCc1cc(Br)cc2nc(O)c(O)nc12 |  | Protection [3]: 0%
4500 | 120 | C[C@@H](NCc1cc(Br)cc2nc(O)c(O)nc12)C(=O)O |  | 
3000 |  | C[C@@H](NCc1cc(Br)cc2nc(O)c(O)nc12)P(=O)(O)O | 12 | ED50 [6]: 18 mg/kg
380 |  | C[C@H](NCc1cc([N+](=O)[O-])cc2nc(O)c(O)nc12)P(=O)(O)O | 8 | inhibition [8]: 51%
 | 45 | CCC(NCc1cc(Br)cc2nc(O)c(O)nc12)P(=O)(O)O (centres undefined) |  | inhibition [10]: 16%; Protection [3]: 20%
200 |  | C[C@@H](CP(=O)(O)O)NCc1cc([N+](=O)[O-])cc2nc(O)c(O)nc12 | 10 | inhibition [8]: 15%
200 |  | C[C@H](CP(=O)(O)O)NCc1cc([N+](=O)[O-])cc2nc(O)c(O)nc12 | 9 | inhibition [8]: 6%
1200 | 6 | C[C@@H](NCc1cc(C(F)(F)F)cc2[nH]c(=O)c(=O)[nH]c12)P(=O)(O)O | 8 | 
1400 |  | C[C@H](NCc1cc(Br)cc2nc(O)c(O)nc12)P(=O)(O)O | 43 | 
380 | 1300 | Br.C[C@@H](NCc1cc([N+](=O)[O-])cc2nc(O)c(O)nc12)C(=O)O |  | Protection [3]: 0%
2000 | 300 | O=P(O)(O)CNCc1cc(C(F)(F)F)cc2nc(O)c(O)nc12 | 30 | 
310 | 1700 | Br.C[C@H](NCc1cc([N+](=O)[O-])cc2nc(O)c(O)nc12)C(=O)O |  | logP [5]: -1.93; ED50 [13]: 19 mg/kg; Protection [12]: 0%
540 | 590 | C[C@H](NCc1cc(C(F)(F)F)cc2nc(O)c(O)nc12)P(=O)(O)O | 20 | 

The next lines start with the molecule.

SMILES | IC50 [1] [nM] | IC50 [2] [nM] | ED50 [7] [mg/kg] | also measured
CC(OCc1cc([N+](=O)[O-])cc2nc(O)c(O)nc12)C(=O)O (centres undefined) | 1300 | 420 |  | 
Br.O=C(O)CNCc1cc([N+](=O)[O-])cc2nc(O)c(O)nc12 | 160 | 760 |  | ED50 [4]: 32 mg/kg
Br.O=C(O)CNCc1cc(Br)cc2nc(O)c(O)nc12 | 4700 | 40 |  | Protection [3]: 0%
O=C(O)CCCNCc1cc([N+](=O)[O-])cc2nc(O)c(O)nc12 | 610 | 9000 |  | 
CCN(Cc1cc([N+](=O)[O-])cc2nc(O)c(O)nc12)[C@@H](C)P(=O)(O)O | 80 |  | 7 | logP [5]: -3.5; ED50 [6]: 18 mg/kg
O=C(O)CCNCc1cc(Br)cc2nc(O)c(O)nc12 | 3800 |  |  | inhibition [8]: 37%
Br.CC[C@H](NCc1cc([N+](=O)[O-])cc2nc(O)c(O)nc12)C(=O)O | 1200 |  |  | Protection [3]: 0%; inhibition [9]: 34%
O=c1[nH]c2cc([N+](=O)[O-])cc(CNCP(=O)(O)O)c2[nH]c1=O | 290 | 1000 | 7 | 
Br.C[C@H](NCCc1cc([N+](=O)[O-])cc2nc(O)c(O)nc12)C(=O)O | 340 |  |  | Protection [3]: 0%; inhibition [9]: 22%
CCN(Cc1cc([N+](=O)[O-])cc2nc(O)c(O)nc12)[C@H](C)P(=O)(O)O | 310 |  | 26 | inhibition [8]: 25%
O=C(O)C1CCN(Cc2cc([N+](=O)[O-])cc3nc(O)c(O)nc23)CC1 | 70 | 3900 | 44 | 
Br.CC(C)(NCc1cc([N+](=O)[O-])cc2nc(O)c(O)nc12)C(=O)O | 290 |  |  | Protection [3]: 0%; inhibition [9]: -9%
Br.O=C(O)CCNCc1cc([N+](=O)[O-])cc2nc(O)c(O)nc12 | 380 | 19000 | 35 | 
C[C@@H](NCc1cc([N+](=O)[O-])cc2[nH]c(=O)c(=O)[nH]c12)[P+]([O-])(O)O | 170 | 32 | 3 | 
NCc1ccc(NC(=O)C[C@@H]2CCc3cc(Cl)cc4[nH]c(=O)c(=O)n2c34)c(OCC(=O)O)c1 |  | 500 |  | IC50 [11]: Not Active
CCN(Cc1cc(C(F)(F)F)cc2nc(O)c(O)nc12)[C@@H](C)P(=O)(O)O | 68 | 4000 | 10 | 
O=C(O)CSCc1cc(Br)cc2nc(O)c(O)nc12 |  | 120 |  | inhibition [10]: 22%; Protection [12]: 0%
CC(=O)N(Cc1cc([N+](=O)[O-])cc2nc(O)c(O)nc12)C(C)P(=O)(O)O (centres undefined) | 1300 |  |  | inhibition [8]: 31%
Br.CCN(Cc1cc([N+](=O)[O-])cc2nc(O)c(O)nc12)CP(=O)(O)O | 120 |  | 18 | inhibition [8]: 24%
COC(=O)C(C)(C)NCc1cc([N+](=O)[O-])cc2nc(O)c(O)nc12 | 1900 |  |  | inhibition [8]: -3%
O=C(O)COCc1cc(Br)cc2nc(O)c(O)nc12 |  | 110 |  | inhibition [10]: 4%; Protection [12]: 0%
O=[N+]([O-])c1cc(CNCCP(=O)(O)O)c2nc(O)c(O)nc2c1 | 640 |  | 18 | inhibition [8]: 8%
O=C(O)COCc1cc([N+](=O)[O-])cc2nc(O)c(O)nc12 | 2000 | 310 |  | 

— ChEMBL document CHEMBL1132024, “N-phosphonoalkyl-5-aminomethylquinoxaline-2,3-diones: in vivo active AMPA and NMDA(glycine) antagonists” (Bioorg Med Chem Lett, 1999)
